Measured values taken from patent EP0005422A2, “Derivatives of omega-dialkylalkanoic acids, processes for their preparation and their therapeutical use” (SANOFI S.A., priority 1978, dated 1979).
Values after ≈ are worked out from the molar mass of the structure shown. Read-outs that look alike come from different tables or passages of the source.

Experiments:
[1] = test system: Crise pentétrazolique; assay: Pentetrazol seizure test (Crise pentétrazolique); type: in vivo, souris; details: mice, 15 minutes after administration of pentetrazol; for ED50: Mus musculus, po, 0.25 h, read-out: DE50 (the source's name)
Protocol: Ce test, pratiqué sur souris par voie orale, est identique à celui décrit dans le brevet français N° 2.276.036.
Les DE50 obtenues 15 minutes après l'administration du pentécra- zol sont reprises ci-dessous comparativement aux résultats trouvés pour les sels de sodium correspondants : [drawing 12]

[2] = test system: Anoxie par confinement; assay: Anoxia by confinement (Anoxie par confinement); type: in vivo, souris; details: for % d'augmentation du temps de survie: male mice, 75 mg/kg intraperitoneal, versus controls
Protocol: Des lots de 15 souris mâles sont traités au moyen d'une dose de composé à étudier puis chaque animal est placé dans une enceinte hermétiquement close de 200 cm^3. L'animal est considéré comme mort au moment de l'arrêt respiratoire.
On détermine alors le % d'augmentation du temps de survie par rapport à des témoins.
On trouvera ci-dessous des résultats obtenus avec des composés de l'invention à la dose de 75 mg/kg par voie intrapéritonéale : [drawing 14]

[3] = test system: Crise à l'acide β-mercaptopropionique; assay: β-mercaptopropionic acid seizure test (Crise à l'acide β-mercaptopropionique); type: in vivo, souris; details: for ED50: Mus musculus, po
Protocol: L'acide p-mercaptopropionique est un inhibiteur de la glutamate décarboxylase (G.A.D.), enzyme qui catalyse la transformation du glutamate en acide y-aminobutyrique (GABA). Son action se traduit donc par un abaissement du taux de GABA et la survenue de crises généralisées tonico-cloniques 3 à 4 minutes après son administration.
L'acide β-mercaptopropionique a été administré à des lots de 10 souris mâles, par voie intrapéritonéale, à la dose de 70 mg/kg, 30 minutes après l'administration orale d'une dose du composé à étudier. On note le pourcentage des animaux protégés contre la crise tonique 15 minutes après l'administration de l'acide β-mercaptopropionique.

[4] = Solubility and pH of aqueous solution; type: physicochemical; details: for solubility: water
[5] = test system: activité anticonvulsivante; assay: Pharmacological studies of anticonvulsant activity (method not specified); type: in vivo; details: at identical doses, compared with di-n-propylacétate de sodium
[6] = test system: souris; assay: Acute toxicity (toxicité aiguë); type: in vivo; details: mice, 1000 mg/kg oral
Protocol: (§1) Des tests de toxicité aiguë pratiqués sur souris ont montré qu'à la dose de 1000 mg/kg, par voie orale, la mortalité provoquée par le n-propyl-3 hexanoate de magnésium et le n-propyl-3 hexanamide est respectivement de 40% et 0%.
(§2) A titre de comparaison, le n-propyl-3 hexanoate de sodium à la dose de 1000 mg/kg par voie orale provoque déjà 80% de mortalité.

[7] = Acute toxicity (toxicité aiguë); type: in vivo; details: mouse, in vivo, po, 1000 mg/kg, mice, 1000 mg/kg oral; read-out: mortalité
Protocol: as §1, §2

[8] = male mice, compound oral 30 minutes before β-mercaptopropionic acid 70 mg/kg i.p., protection against tonic seizure 15 minutes after
[9] = male mice, compound oral 30 minutes before β-mercaptopropionic acid 70 mg/kg i.p., protection against tonic seizure 15 minutes after, read-out: DE50 (the source's name)

Structure (SMILES)	ED50 [1] [mg/kg]	% d'augmentation du temps de survie [2] [%]	ED50 [3, 9] [mg/kg]	also measured
CCCC(CCC)CCC(N)=O [Y=NH2, n=1, n-propyl-4 heptanamide]	104	15	–	–
CCCC(CCC)CCC(=O)O [Y=OCa1/2, n=1, n-propyl-4 heptanoate de calcium]	–	27	–	DE50 [3, 8]: 101 mg/kg; solubility ([4]; dissolves very slowly, read-out: se dissout dans l'eau): 1000 mg/mL
CCCC(CCC)CCCC(N)=O [Y=NH2, n=2, n-propyl-5 octanamide]	121	64	129	–
CCCC(CCC)C(=O)O [sel de calcium]	–	–	–	potentialités anticonvulsivantes [5]: sensiblement équivalentes à celles du di-n-propylacétate de sodium et même légèrement inférieures
CCCC(CCC)CCCC(=O)O [Y=OMg1/2, n=2, n-Propyl-5 octanoate de magnésium]	–	56	–	DE50 [3, 8]: 124 mg/kg; DE50 ([1]; oral route, 15 min): 152 mg/kg; solubilité dans les solvants organiques ([4]; organic solvents): Bonne solubilité; solubility ([4]; read-out: Solubilité dans l'eau): 1 mg/mL (≈ 5.37 mM)
CCCC(CCC)CCCC(=O)O [Y=ONa, n=2, reference compound]	172	–	–	–
CCCC(CCC)C(=O)O [di-n-propylacétate de sodium, reference compound]	–	–	–	ED50 ([3]; read-out: DE50): 175 mg/kg; augmentation du temps de survie ([2]; 200 mg/kg intraperitoneal, comparative test): 32%
CCCC(CCC)CCC(=O)O [Y=ONa, n=1, reference compound]	119	–	124	–
CCCC(CCC)CC(=O)O [Y=ONa, n=0, n-propyl-3 hexanoate de sodium, reference compound]	95	–	168	mortalité [6]: 80%
CCCC(CCC)CC(=O)O [Y=OMg1/2, n=0, n-propyl-3 hexanoate de magnésium]	–	36	–	DE50 [3, 8]: 145 mg/kg; mortalité [6]: 40%; pH ([4]; 2% aqueous solution, slightly opalescent): 9,4
CCCC(CCC)CC(N)=O [Y=NH2, n=0, n-propyl-3 hexanamide]	65	–	106	mortality [7]: 0%
